Measurements as given in US20240306670A1, “BERBERINE ALKALOIDS IN THE PREVENTION AND/OR TREATMENT OF INTESTINAL DISEASE” (priority 2017, published 2024).
Read-outs that look alike come from different tables or passages of the source.

Experiments:
[1] = test system: Clostridium Perfringens (type A strain EHE-NE36) after Eimeria oocyst challenge; details: NE challenged broilers; for median lesion scores: relative to nil-treatment; for small intestinal lesion scores: relative to nil treatment
[2] = cited from earlier work
[3] = Feed palatability, feed and water consumption and bird productivity study (Example 2); format: in vivo, broiler chickens; details: treated birds, in-water days 6-42
Excerpt: A follow-up study to determine the feed palatability, feed and water consumption and bird productivity following incorporation of a single formulation of IRP001 hemisulfate salt (unmasked) when offered to broiler chickens in-feed or in-water. The study explores the optimal treatment regime in terms of treatment start date.
Phase 1: On receipt, two hundred and seventy (270) day-old commercial broiler chickens were allocated sequentially as they are received into sixteen (16) individual floor pens, each of 16 or 17 birds, on Day 0.
Phase 2: On receipt, the ninety (90) day-old commercial broiler chickens were allocated sequentially as they are received into four (4) individual floor pens, each of 22 or 23 birds, on Day 22.
Feed intake, water intake, weight gain and mortality were used as outcome parameters.
Individual daily feed intake and individual daily water intake data by pen and then by treatment group were calculated for Phases 1 and 2 (and for the entire trial for the birds in Group/Pen 2, 15 and 16 that continue through both Phases) using figures for total feed and water provided each day to each pen divided by the number of birds in each pen. Where errors in weighing, feeding/watering or recording (or other unexplained losses of feed and water) had occurred means were adjusted by using the mean value for the same pen on the 1-2 days either side of the apparent error. Similarly, group mean bodyweights were calculated for Phase 1 using total weight/total no. birds for Day 0 and individual weights from Days 7, 14, 21, 28, 35 and 42. Total (individual) feed consumed was calculated per treatment and feed conversion ratios per treatment calculated using the expression: total (individual) feed/total (individual) weight gain.
Individual daily feed intake and individual daily water intake were statistically compared by treatment within each phase and between Pens 2 and 15/16 over both phases using a linear model:—
and Tibco SPOTFIRE S+ 8.2 (2010). ‘Day’ was included in the model to allow for changes over time, ‘Pen’ as each treatment consisted of 2 pens while an interaction term ‘Treatment:Day’ was included to allow for treatment×time effects. Model suitability was confirmed by inspection of residual plots; in all instances the statistical model was appropriate.

[4] = test system: Eimeria species (mainly E. acervulina)
[5] = test system: clinical isolate of C. difficile; experiment: In vitro MIC and MBC against Clostridium difficile (Example 6); format: cell-based
[6] = in vivo
[7] = in vivo; cited from earlier work
[8] = test system: Necrotic Enteritis strain of C. perfringens; format: cell-based, Clostridium perfringens
E. coli causing scour = experiment: In vitro MIC against pig disease strains (Example 5); format: cell-based; details: all 5 strains of E. coli causing scour

berberine hemisulfate [IRP001 sulfate]
median lesion scores ([1]; 0.1 g/L in-water): no reduction in median lesion scores | Mortalities prior to autopsy ([1]; 0.1 g/L in-water, vs nil-treatment): not significantly different | median lesion scores ([1]; 0.2 g/kg in-feed): no reduction in median lesion scores | Mortalities prior to autopsy ([1]; 0.2 g/kg in-feed, vs nil-treatment): not significantly different | small intestinal lesion scores ([1]; 1.0 g/L in-water): substantial reduction in small intestinal lesion scores | Mortalities prior to autopsy ([1]; 1.0 g/L in-water, relative to nil-treatment and low-dose groups): significant reduction in mortalities | small intestinal lesion scores ([1]; 2.0 g/kg in-feed): substantial reduction in small intestinal lesion scores | Mortalities prior to autopsy ([1]; 2.0 g/kg in-feed, relative to nil-treatment and low-dose groups): significant reduction in mortalities | solubility ([2]; ethanol): slightly soluble | solubility ([2]; water): about 30 parts water | FCR (feed conversion ratio) [3]: 1.6 kg feed: 1 kg gain | weight gained [3]: 2.35 kg

CC[C@@H](C(=O)[C@@H](C)[C@@H](O)[C@H](C)[C@@H]1O[C@@H]([C@@H](CC)C(=O)O)CC[C@@H]1C)[C@H]1O[C@]2(C=C[C@@H](O)[C@]3(CC[C@@](C)([C@H]4CC[C@](O)(CC)[C@H](C)O4)O3)O2)[C@H](C)C[C@@H]1C [salinomycin, Salinomycin, reference compound]
Intestinal health score: Ballooning (total gut) ([4]; 21 days): 0.10 | Intestinal health score: Contents lower intestine ([4]; 21 days): 0.45 | Intestinal health score: Contents upper intestine ([4]; 21 days): 0.65 | Intestinal health score: Hyperaemia lower intestine ([4]; 21 days): 0.00 | Intestinal health score: Hyperaemia upper intestine ([4]; 21 days): 0.15 | Intestinal health score: Tonus lower intestine ([4]; 21 days): 0.50 | Intestinal health score: Tonus upper intestine ([4]; 21 days): 0.50 | Intestinal health score: Total Intestine (maximum 10) ([4]; 21 days): 3.55 | Intestinal health score: Translucency lower intestine ([4]; 21 days): 0.85 | Intestinal health score: Translucency upper intestine ([4]; 21 days): 0.20^B | Intestinal health score: Undigested particles in (rectum) ([4]; 21 days): 0.15^B | Intestinal health score: Ballooning (total gut) ([4]; 28 days): 0.80 | Intestinal health score: Contents lower intestine ([4]; 28 days): 0.00 | Intestinal health score: Contents upper intestine ([4]; 28 days): 1.00 | Intestinal health score: Hyperaemia lower intestine ([4]; 28 days): 0.20 | Intestinal health score: Hyperaemia upper intestine ([4]; 28 days): 0.80 | Intestinal health score: Tonus lower intestine ([4]; 28 days): 0.60 | Intestinal health score: Tonus upper intestine ([4]; 28 days): 0.80 | Intestinal health score: Total Intestine (maximum 10) ([4]; 28 days): 5.20 | Intestinal health score: Translucency lower intestine ([4]; 28 days): 0.20 | Intestinal health score: Translucency upper intestine ([4]; 28 days): 0.40 | Intestinal health score: Undigested particles in (rectum) ([4]; 28 days): 0.40 | FCR 0-14 corrected for mortality ([4]; in vivo): 1.113 | FCR 0-21 corrected for mortality ([4]; in vivo): 1.238 | FCR 0-28 corrected for mortality ([4]; in vivo): 1.470 | FCR 0-42 corrected for mortality ([4]; in vivo): 1.546^BC | Faecal oocyst count, Mean ([4]; in vivo): 72,046 Oocyst/g | Feed per bird over days 0-14 ([4]; in vivo): 497^AB g/bird | Feed per bird over days 0-21 ([4]; in vivo): 1193^B g/bird | Feed per bird over days 0-28 ([4]; in vivo): 2074 g/bird | Feed per bird over days 0-42 ([4]; in vivo): 4298 g/bird | Mean Coccidiosis Lesion Score (maximum 4) Caeca ([4]; in vivo): 0.00 | Mean Coccidiosis Lesion Score (maximum 4) Duodenum ([4]; in vivo): 1.35^ABC | Mean Coccidiosis Lesion Score (maximum 4) Ileum ([4]; in vivo): 0.00 | Mean Coccidiosis Lesion Score (maximum 4) Jejunum ([4]; in vivo): 0.40^B | Mean Coccidiosis Lesion Score Total ([4]; in vivo): 1.75^B | Mean Weight Gain over days 0-7 ([4]; in vivo): 116 gm | Mean Weight Gain over days 8-14 ([4]; in vivo): 330^BC gm | Mean Weight Gain over days 15-21 ([4]; in vivo): 517^A gm | Mean Weight Gain over days 22-28 ([4]; in vivo): 645 gm | Mean Weight Gain over days 29-42 ([4]; in vivo): 1384 gm | Mean live weight at 0 days ([4]; in vivo): 41 gm | Mean live weight at 7 days ([4]; in vivo): 157 gm | Mean live weight at 14 days ([4]; in vivo): 446^B gm | Mean live weight at 21 days ([4]; in vivo): 963^AB gm | Mean live weight at 28 days ([4]; in vivo): 1608^A gm | Mean live weight at 42 days ([4]; in vivo): 2991^A gm | growth rate ([4]; in vivo): statistically similar to the control group

COc1ccc2cc3[n+](cc2c1OC)CCc1cc2c(cc1-3)OCO2 [IRP001, berberine]
MIC ([5]; Clostridioides difficile, C. difficile clinical isolate, Berberine sulfate as test agent, variation between replicates, read-out: MIC): 500 to 1000 µg/mL | MBC ([5]; Clostridioides difficile, against CD (C. difficile)): 880 to 1000 µg/mL | MIC ([5]; Clostridioides difficile, against CD (C. difficile), read-out: MIC): 640 to 820 µg/mL | adverse reactions / unanticipated events [6]: no adverse reaction or unanticipated event | carcinogenicity finding [7]: potential carcinogenicity | MIC ([8]; C. perfringens NE strain, Berberine sulfate (purity 98.0%) as test agent): 125 µg/mL | inhibition of growth ([8]; C. perfringens, at 62.5 µg/ml): partial inhibition of growth

CN[C@H](CC(C)C)C(=O)N[C@H]1C(=O)N[C@@H](CC(N)=O)C(=O)N[C@H]2C(=O)N[C@H]3C(=O)N[C@H](C(=O)N[C@H](C(=O)O)c4cc(O)cc(O)c4-c4cc3ccc4O)[C@H](O)c3ccc(c(Cl)c3)Oc3cc2cc(c3O[C@@H]2O[C@H](CO)[C@@H](O)[C@H](O)[C@H]2O[C@H]2C[C@](C)(N)[C@H](O)[C@H](C)O2)Oc2ccc(cc2Cl)[C@H]1O [Vancomycin, reference compound]
MIC [5]: within the expected range | MIC [8]: within the expected range

COc1cc2c(cc1OC)-c1cc3ccc(OC)c(OC)c3c[n+]1CC2 [palmatine]
MIC (E. coli causing scour): 125 µg/mL
